Counter-ions that a name gives are not always drawn. Like-named read-outs stand apart in the source and are kept apart here.
Key:
Assay type in all cases: biochemical
[1] = molecular target: T1, human JAK1 (a.a. 837-1142) (Homo sapiens, UniProt P23458); test: In vitro JAK kinase assay (HTRF, phosphorylation of a biotinylated peptide), JAK1; settings: read-out: JAK1 IC50
T1 construct: human JAK1 (a.a. 837-1142); His tag (N); made in house; host or cells: insect cells (baculovirus)
In short: (§1)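 Kinase activity was measured as phosphorylation of a biotinylated peptide, with ATP at 90 μM for JAK1, 30 μM for JAK2 and 3 μM for JAK3. Reactions ran 1 hr at room temperature, were stopped with EDTA plus SA-APC and Eu-Py20, and were read by HTRF after 40 minutes of antibody binding.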

[2] = molecular target: T2, Recombinant Human Anaplastic Lymphoma Kinase (Homo sapiens, UniProt Q9UM73); test: ALK HTRF kinase assay
T2 construct: purchased Invitrogen, Carlsbad, Calif
In short: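 IC50 was obtained from a logistic fit of signal versus log inhibitor concentration, using pre- and post-transition baselines and a Hill slope. The signal reported tyrosine phosphorylation of a biotinylated peptide by recombinant human kinase, detected as Eu-to-APC energy transfer.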

[3] = molecular target: T3, human JAK2 (a.a. 828-1132) (Homo sapiens, UniProt O60674); test: In vitro JAK kinase assay (HTRF, phosphorylation of a biotinylated peptide), JAK2
T3 construct: JAK2 (a.a. 828-1132); His tag (N); made in house; host or cells: insect cells (baculovirus)
In short: as §1

[4] = molecular target: TYK2 (Homo sapiens, UniProt P29597); test: TYK2 kinase inhibition (Table A1)
[5] = molecular target: T4, human JAK3 (a.a. 781-1124) (Homo sapiens, UniProt P52333); test: In vitro JAK kinase assay (HTRF, phosphorylation of a biotinylated peptide), JAK3
T4 construct: JAK3 (a.a. 781-1124); His tag (N); made in house; host or cells: insect cells (baculovirus)
In short: as §1

[6] = method AA1 (90 μM ATP) or AA2 (1000 μM ATP), not stated per value
[7] = compound at 500 nM or 1 mM, 90 μM ATP
[8] = method AA1 (30 μM ATP) or AA2 (1000 μM ATP), not stated per value
[9] = method AA1 (3 μM ATP) or AA2 (1000 μM ATP), not stated per value
[10] = compound at a concentration of 500 nM or 1 mM (not specified), cells shown as percentage
[11] = Table B1, cells without percent sign

T2 sequence (Q9UM73 19-1620): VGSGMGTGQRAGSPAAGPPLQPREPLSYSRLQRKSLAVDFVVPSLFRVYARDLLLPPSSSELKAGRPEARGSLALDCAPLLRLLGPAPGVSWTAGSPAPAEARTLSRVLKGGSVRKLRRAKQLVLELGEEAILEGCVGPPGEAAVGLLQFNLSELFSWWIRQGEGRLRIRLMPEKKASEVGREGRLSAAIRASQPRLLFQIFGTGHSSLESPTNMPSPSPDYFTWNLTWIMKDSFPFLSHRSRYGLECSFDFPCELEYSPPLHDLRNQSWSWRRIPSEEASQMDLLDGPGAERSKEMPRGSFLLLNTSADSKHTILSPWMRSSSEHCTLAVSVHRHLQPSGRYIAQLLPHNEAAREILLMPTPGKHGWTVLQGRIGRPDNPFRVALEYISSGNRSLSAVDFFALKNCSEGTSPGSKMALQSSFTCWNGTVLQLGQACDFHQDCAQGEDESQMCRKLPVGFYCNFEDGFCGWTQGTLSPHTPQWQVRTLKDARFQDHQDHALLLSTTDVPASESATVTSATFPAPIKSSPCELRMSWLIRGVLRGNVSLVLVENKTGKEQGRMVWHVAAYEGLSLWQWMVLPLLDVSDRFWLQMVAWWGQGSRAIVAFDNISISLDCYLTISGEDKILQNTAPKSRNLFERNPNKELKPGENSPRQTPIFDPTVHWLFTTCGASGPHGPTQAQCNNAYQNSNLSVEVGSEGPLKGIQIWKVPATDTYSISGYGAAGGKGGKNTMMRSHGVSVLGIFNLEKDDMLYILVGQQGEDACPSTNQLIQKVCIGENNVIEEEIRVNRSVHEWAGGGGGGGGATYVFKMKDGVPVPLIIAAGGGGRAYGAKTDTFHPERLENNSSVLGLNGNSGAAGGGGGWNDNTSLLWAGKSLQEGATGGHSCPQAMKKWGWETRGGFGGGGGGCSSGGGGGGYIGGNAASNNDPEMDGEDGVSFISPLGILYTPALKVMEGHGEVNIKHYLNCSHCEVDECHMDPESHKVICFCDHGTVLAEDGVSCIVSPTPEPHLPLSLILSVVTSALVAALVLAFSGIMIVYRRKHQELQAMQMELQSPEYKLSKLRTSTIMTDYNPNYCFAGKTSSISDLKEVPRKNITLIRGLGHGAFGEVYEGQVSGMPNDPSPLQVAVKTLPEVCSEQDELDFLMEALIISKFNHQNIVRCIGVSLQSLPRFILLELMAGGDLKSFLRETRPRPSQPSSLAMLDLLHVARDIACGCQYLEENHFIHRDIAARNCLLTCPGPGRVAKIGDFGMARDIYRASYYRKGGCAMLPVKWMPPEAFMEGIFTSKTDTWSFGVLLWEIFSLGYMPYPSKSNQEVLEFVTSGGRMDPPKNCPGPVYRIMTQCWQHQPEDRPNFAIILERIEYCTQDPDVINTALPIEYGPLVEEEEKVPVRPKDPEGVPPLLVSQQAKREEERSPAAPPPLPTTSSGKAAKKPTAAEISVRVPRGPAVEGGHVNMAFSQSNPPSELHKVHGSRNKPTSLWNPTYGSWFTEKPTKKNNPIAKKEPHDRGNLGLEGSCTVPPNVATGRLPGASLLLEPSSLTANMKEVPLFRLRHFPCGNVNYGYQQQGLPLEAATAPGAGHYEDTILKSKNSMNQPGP
T1 sequence (P23458 849-1154): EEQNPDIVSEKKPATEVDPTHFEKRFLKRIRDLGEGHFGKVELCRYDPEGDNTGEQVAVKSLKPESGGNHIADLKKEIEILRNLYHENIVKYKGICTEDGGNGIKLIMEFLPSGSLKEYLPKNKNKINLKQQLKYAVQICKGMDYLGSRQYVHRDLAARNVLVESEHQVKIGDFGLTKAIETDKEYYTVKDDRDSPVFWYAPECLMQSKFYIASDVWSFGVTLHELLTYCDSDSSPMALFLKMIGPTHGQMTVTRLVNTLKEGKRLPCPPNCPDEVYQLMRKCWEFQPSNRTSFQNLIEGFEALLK
T4 sequence (P52333 781-1124): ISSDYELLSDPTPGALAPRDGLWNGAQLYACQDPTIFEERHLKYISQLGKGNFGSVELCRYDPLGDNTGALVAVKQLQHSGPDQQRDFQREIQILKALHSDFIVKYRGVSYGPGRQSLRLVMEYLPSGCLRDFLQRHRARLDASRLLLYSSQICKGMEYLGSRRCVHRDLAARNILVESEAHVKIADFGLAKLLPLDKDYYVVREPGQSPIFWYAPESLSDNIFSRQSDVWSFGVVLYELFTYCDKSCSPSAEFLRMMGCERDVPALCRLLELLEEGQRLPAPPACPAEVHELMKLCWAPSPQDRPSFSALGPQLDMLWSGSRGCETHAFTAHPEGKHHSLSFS
Sequence of TYK2 (P29597 whole entry): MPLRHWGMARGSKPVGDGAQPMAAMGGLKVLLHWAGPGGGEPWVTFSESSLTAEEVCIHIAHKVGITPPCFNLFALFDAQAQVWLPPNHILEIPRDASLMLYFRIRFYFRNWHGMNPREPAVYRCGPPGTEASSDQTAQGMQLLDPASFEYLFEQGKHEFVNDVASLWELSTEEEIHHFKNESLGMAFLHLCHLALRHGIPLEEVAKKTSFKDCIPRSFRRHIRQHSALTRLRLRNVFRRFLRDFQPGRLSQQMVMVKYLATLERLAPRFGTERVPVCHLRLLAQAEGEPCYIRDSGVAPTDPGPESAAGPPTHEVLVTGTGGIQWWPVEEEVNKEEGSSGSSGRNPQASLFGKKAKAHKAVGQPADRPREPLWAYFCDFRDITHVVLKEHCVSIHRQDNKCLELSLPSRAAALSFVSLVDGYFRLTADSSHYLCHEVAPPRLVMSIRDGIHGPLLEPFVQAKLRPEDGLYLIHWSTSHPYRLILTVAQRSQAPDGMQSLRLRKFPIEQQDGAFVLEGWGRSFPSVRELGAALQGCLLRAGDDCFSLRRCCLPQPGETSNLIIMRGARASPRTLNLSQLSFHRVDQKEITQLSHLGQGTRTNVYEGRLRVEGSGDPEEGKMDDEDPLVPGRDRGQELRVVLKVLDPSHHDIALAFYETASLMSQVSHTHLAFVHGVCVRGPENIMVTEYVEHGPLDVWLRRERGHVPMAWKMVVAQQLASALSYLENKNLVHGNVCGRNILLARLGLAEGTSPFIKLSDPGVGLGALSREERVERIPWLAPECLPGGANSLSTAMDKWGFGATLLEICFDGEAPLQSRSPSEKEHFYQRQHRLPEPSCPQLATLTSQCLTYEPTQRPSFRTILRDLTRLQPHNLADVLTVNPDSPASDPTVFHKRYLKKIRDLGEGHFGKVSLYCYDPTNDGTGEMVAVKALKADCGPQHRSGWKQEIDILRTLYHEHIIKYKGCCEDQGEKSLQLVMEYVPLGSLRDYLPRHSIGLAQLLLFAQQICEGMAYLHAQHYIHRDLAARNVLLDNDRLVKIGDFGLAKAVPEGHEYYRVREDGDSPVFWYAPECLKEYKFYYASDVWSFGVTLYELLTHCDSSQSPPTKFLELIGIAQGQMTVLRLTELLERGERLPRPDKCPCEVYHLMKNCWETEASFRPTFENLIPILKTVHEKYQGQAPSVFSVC
T3 sequence (O60674 828-1132): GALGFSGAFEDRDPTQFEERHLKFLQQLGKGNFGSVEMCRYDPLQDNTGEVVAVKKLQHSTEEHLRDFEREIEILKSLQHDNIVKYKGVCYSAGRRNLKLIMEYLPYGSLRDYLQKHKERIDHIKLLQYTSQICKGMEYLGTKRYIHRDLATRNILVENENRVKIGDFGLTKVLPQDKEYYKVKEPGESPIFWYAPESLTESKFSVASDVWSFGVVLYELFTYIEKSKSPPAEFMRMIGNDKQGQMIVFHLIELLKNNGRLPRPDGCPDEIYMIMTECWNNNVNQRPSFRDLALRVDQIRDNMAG

| Compound | IC50 [1, 6] | ALK % of inhibition at a concentration of 500 nM or 1 mM [2, 7] | IC50 [3, 8] | IC50 [4] | IC50 [5, 9] | IC50 ([1]; Table B1) | IC50 ([3]; Table B1) | IC50 ([4]; Table B1) | IC50 ([5]; Table B1) | further results |
| --- | --- | --- | --- | --- | --- | --- | --- | --- | --- | --- |
| Cc1oncc1C(=O)N1CCC(CC(=O)Nc2ccc3cc2CCc2cncc(c2)Nc2ncc(Cl)c(n2)N3)CC1 [Example A131, N-[6-Chloro-2,4,8,18,22-pentaazatetracyclo[14.3.1.1(3,7).1(9,13)]docosa-1(20),3(22),4,6,9(21),10,12,16,18-nonaen-12-yl]-2-{1-[(5-methylisoxazol-4-yl)carbonyl]piperidin-4-yl}acetamide bis(trifluoroacetate)] | 6.6 nM | 20% | 36 nM | 45 nM | 225 nM | – | – | – | – | – |
| Cc1oncc1S(=O)(=O)N1CCC(CC(=O)Nc2ccc3cc2CCc2cccc(c2)Nc2ncc(Cl)c(n2)N3)CC1 [Example A210, N-[6-Chloro-2,4,8,22-tetraazatetracyclo[14.3.1.1(3,7).1(9,13)]docosa-1(20),3(22),4,6,9(21),10,12,16,18-nonaen-12-yl]-2-{1-[(5-methylisoxazol-4-yl)sulfonyl]piperidin-4-yl}acetamide trifluoroacetate] | 35 nM | 20% | 90 nM | > 200 nM | > 200 nM | – | – | – | – | – |
| CC(=O)N1CCN(C(=O)Nc2ccc3cc2CCc2cncc(c2)Nc2ncc(Cl)c(n2)N3)CC1 [Example B317, 4-Acetyl-N-[6-chloro-2,4,8,18,22-pentaazatetracyclo[14.3.1.1(3,7).1(9,13)]docosa-1(20),3(22),4,6,9(21),10,12,16,18-nonaen-12-yl]piperazine-1-carboxamide bis(trifluoroacetate)] | – | – | – | – | – | 57 nM | > 400 nM | 356 nM | > 400 nM | ALK % of inhibition at a concentration of 500 nM or 1 mM ([2]; percentage inhibition of the example compound at a concentration of 500 nM or 1 mM (not specified which)): 50% |
| O=C(Nc1cc2cc(c1)OCCSc1cccc(c1)Nc1nc(ncc1Cl)N2)c1ccncc1 [Example D60, N-[6-Chloro-17-oxa-14-thia-2,4,8,24-tetraazatetracyclo[16.3.1.1(3,7).1(9,13)]tetracosa-1(22),3(24),4,6,9(23),10,12,18,20-nonaen-20-yl]isonicotinamide bis(trifluoroacetate)] | – | – | – | – | – | – | – | – | – | IC50 ([1]; Table D1): 2 nM; IC50 ([2]; Table D1, 90 μM ATP): 130 nM; IC50 ([3]; Table D1): 0.6 nM; IC50 ([4]; Table D1): 1.3 nM; IC50 ([5]; Table D1): 5 nM |
| CCNC(=O)N1CCC(C(=O)Nc2ccc3cc2CCc2cccc(c2)Nc2ncc(Cl)c(n2)N3)CC1 [Example A59, N(4)-[6-Chloro-2,4,8,22-tetraazatetracyclo[14.3.1.1(3,7).1(9,13)]docosa-1(20),3(22),4,6,9(21),10,12,16,18-nonaen-12-yl]-N(1)-ethylpiperidine-1,4-dicarboxamide trifluoroacetate] | 26 nM | 39% | 6.9 nM | 15 nM | 19 nM | – | – | – | – | – |
| O=S(=O)(Nc1ccc2cc1CCc1cccc(c1)Nc1ncc(Cl)c(n1)N2)c1cccc2cccnc12 [Example B160, N-[6-Chloro-2,4,8,22-tetraazatetracyclo[14.3.1.1(3,7).1(9,13)]docosa-1(20), 3(22),4,6,9(21),10,12,16,18-nonaen-12-yl]quinoline-8-sulfonamide bis(trifluoroacetate)] | – | – | – | – | – | 12 nM | 6.4 nM | 2.4 nM | 102 nM | ALK % of inhibition at a concentration of 500 nM or 1 mM [2, 10]: 4.6% |
| CC(C)(C)OC(=O)N1CC[C@@H](NCc2ccc3cc2CCc2cccc(c2)Nc2ncc(Cl)c(n2)N3)C1 [Example B219, tert-Butyl (3R)-3-({[6-chloro-2,4,8,22-tetraazatetracyclo[14.3.1.1(3,7).1(9,13)]docosa-1(20),3(22),4,6,9(21),10,12,16,18-nonaen-12-yl]methyl}amino)pyrrolidine-1-carboxylate bis(trifluoroacetate)] | – | – | – | – | – | 6.6 nM | 16 nM | 29 nM | 29 nM | ALK % of inhibition at a concentration of 500 nM or 1 mM [2, 10]: 26% |
| O=C(CC1CCN(S(=O)(=O)c2cccnc2)CC1)Nc1ccc2cc1CCc1cncc(c1)Nc1ncc(Cl)c(n1)N2 [Example A202, N-[6-Chloro-2,4,8,18,22-pentaazatetracyclo[14.3.1.1(3,7).1(9,13)]docosa-1(20),3(22),4,6,9(21),10,12,16,18-nonaen-12-yl]-2-[1-(pyridin-3-ylsulfonyl)piperidin-4-yl]acetamide tris(trifluoroacetate)] | 0.7 nM | 42% | 14 nM | 150 nM | > 200 nM | – | – | – | – | – |
| Clc1cnc2nc1Nc1cccc(c1)OCCc1cc(cc(-c3ccnc(N4CCNCC4)c3)c1)N2 [Example D27, 6-Chloro-19-(2-piperazin-1-ylpyridin-4-yl)-14-oxa-2,4,8,23-tetraazatetracyclo[15.3.1.1(3,7).1(9,13)]tricosa-1(21),3(23),4,6,9(22),10,12,17,19-nonaene tris(trifluoroacetate)] | – | – | – | – | – | – | – | – | – | IC50 ([1]; Table D1): 1.5 nM; IC50 ([2]; Table D1, 90 μM ATP): 32 nM; IC50 ([3]; Table D1): 0.3 nM; IC50 ([4]; Table D1): 3.9 nM; IC50 ([5]; Table D1): 3.5 nM |
| CC(C)(C)NC(=O)N1CCN(c2cc(-c3cc4cc(c3)Nc3ncc(Cl)c(n3)Nc3cccc(c3)OCC4)ccn2)CC1 [Example D41, N-(tert-Butyl)-4-{4-[6-chloro-14-oxa-2,4,8,23-tetraazatetracyclo[15.3.1.1(3,7).1(9,13)]tricosa-1(21),3(23),4,6,9(22),10,12,17,19-nonaen-19-yl]pyridin-2-yl}piperazine-1-carboxamide bis(trifluoroacetate)] | – | – | – | – | – | – | – | – | – | IC50 ([1]; Table D1): 3.1 nM; IC50 ([2]; Table D1, 90 μM ATP): 280 nM; IC50 ([3]; Table D1): 0.4 nM; IC50 ([4]; Table D1): 6.2 nM; IC50 ([5]; Table D1): 17 nM |
| Cc1noc(C)c1NC(=O)Nc1ccc2cc1CCc1cccc(c1)Nc1ncc(Cl)c(n1)N2 [Example B94, N-[6-Chloro-2,4,8,22-tetraazatetracyclo[14.3.1.1(3,7).1(9,13)]docosa-1(20), 3(22),4,6,9(21),10,12,16,18-nonaen-12-yl]-N′-(3,5-dimethylisoxazol-4-yl)urea trifluoroacetate] | – | – | – | – | – | 3.1 nM | 3.8 nM | 13 nM | 51 nM | IC50 [2, 11]: > 1000 nM |
| Cc1cccc(Cl)c1NC(=O)Nc1ccc2cc1CCc1cccc(c1)Nc1ncc(Cl)c(n1)N2 [Example B122, N-(2-Chloro-6-methylphenyl)-N′-[6-chloro-2,4,8,22-tetraazatetracyclo[14.3.1.1(3,7).1(9,13)]docosa-1(20),3(22),4,6,9(21),10,12,16,18-nonaen-12-yl]urea trifluoroacetate] | – | – | – | – | – | 5.6 nM | 6.7 nM | 24 nM | 30 nM | ALK % of inhibition at a concentration of 500 nM or 1 mM [2, 10]: 13% |
| O=C(CC1CCN(C(=O)c2ccc(F)cc2)CC1)Nc1ccc2cc1CCc1cccc(c1)Nc1ncc(Cl)c(n1)N2 [Example A203, N-[6-Chloro-2,4,8,22-tetraazatetracyclo[14.3.1.1(3,7).1(9,13)]docosa-1(20),3(22),4,6,9(21),10,12,16,18-nonaen-12-yl]-2-[1-(4-fluorobenzoyl)piperidin-4-yl]acetamide trifluoroacetate] | 38 nM | 38% | 150 nM | > 200 nM | > 200 nM | – | – | – | – | – |
| CC(C)NC(=O)N1CCC(CC(=O)Nc2ccc3cc2CCc2cccc(c2)Nc2ncc(Cl)c(n2)N3)CC1 [Example A84, 4-(2-{[6-Chloro-2,4,8,22-tetraazatetracyclo[14.3.1.1(3,7).1(9,13)]docosa-1(20),3(22),4,6,9(21),10,12,16,18-nonaen-12-yl]amino}-2-oxoethyl)-N-isopropylpiperidine-1-carboxamide trifluoroacetate] | 24 nM | 31% | 9 nM | 16 nM | 49 nM | – | – | – | – | – |
| COC(=O)c1ccc2cc1CCc1cccc(c1)Nc1ncc(Cl)c(n1)N2 [Example B22, Methyl 6-chloro-2,4,8,22-tetraazatetracyclo[14.3.1.1(3,7).1(9,13)]docosa-1(20),3(22),4,6,9(21),10,12,16,18-nonaene-12-carboxylate trifluoroacetate] | – | – | – | – | – | 144 nM | 11 nM | 41 nM | 104 nM | IC50 [2, 11]: 1440 nM |
| O=C(CC1CCN(C(=O)c2ccccc2)CC1)Nc1ccc2cc1CCc1cncc(c1)Nc1ncc(Cl)c(n1)N2 [Example A192, 2-(1-Benzoylpiperidin-4-yl)-N-[6-chloro-2,4,8,18,22-pentaazatetracyclo[14.3.1.1(3,7).1(9,13)]docosa-1(20),3(22),4,6,9(21),10,12,16,18-nonaen-12-yl]acetamide bis(trifluoroacetate)] | 21 nM | 31% | > 200 nM | > 200 nM | > 200 nM | – | – | – | – | – |
